IC50 data for 21 molecules are collected here from US20260337193A1, “SMALL MOLECULE INHIBITORS OF UBIQUITIN SPECIFIC PROTEASE 1 (USP1) AND USES THEREOF” (Insilico Medicine IP Limited, priority 2023, published 2026).

In experiment [1] the target is T1, Human recombinant USP1/UAF1 (Homo sapiens, UniProt O94782).
T1 construct: purchased R & D E-568-050; host or cells: baculovirus infected Sf21 cells
Put plainly: Enzymatic assay: USP1/UAF1 deubiquitination of Ubiquitin Rhodamine 110 (kinetic fluorescence). The note with it: 2 nM USP1/UAF1, 15 min preincubation at RT, HEPES pH 8.0, 500 nM Ubiquitin Rhodamine 110. The experiment is classed as biochemical. The protocol: Example A1: Enzymatic Assay
Human recombinant USP1/UAF1 expressed in baculovirus infected Sf21 cells were used (R & D, E-568-050). Test compound and/or vehicle was incubated with 2 nM of USP1/UAF1 in modified HEPES buffer pH 8.0 for 15 minutes at RT. The reaction was initiated by addition of 500 nM of Ubiquitin Rhodamine 110 (R & D, U-555-050) for kinetic reading. Slope change of fluorescence intensity was read spectrofluorimetrically at 485 nm/535 nm. Dose response of test compounds or reference compound ML-323 was analyzed by nonlinear regression of GraphPad prism software.

The next experiment relates to MDA-MB-436 cells. Put plainly: MDA-MB-436 breast cancer cell proliferation assay (CellTiter-Glo). The format is cell-based. Conditions: Homo sapiens, 168 h, 7 days, 37° C. The procedure: Example A2: MDA-MB-436 Breast Cancer Cell Culture
MDA-MB-436 cells were grown in Leibovitz's L-15 medium with 10 μg/ml insulin, 16 μg/ml glutathione, 10% FBS. Cells were passaged at subconfluence after trypsinization and maintained in incubators at 37° C. in a humidified atmosphere with 5% CO2.
Example A3: MDA-MB-436 Breast Cancer Cell Proliferation Assay
Cell proliferation was determined using CellTiter-Glo® Luminescent Cell Viability Assay (Promega, #G7573). MDA-MB-436 cells were seeded in 384-well plates and allowed to attach for 24 h. Compounds were added into 384-well plate by ECHO, and incubated at 37° C. in a humidified atmosphere with 5% CO2. After 7 days, CellTiter-Glo® was added into 384 well plates, contents were mixed on an orbital shaker at 400 g for 2 min before centrifuging the plate for 2 min at 1000 rpm. After incubation at RT for 30 min, luminescence was read on envision.
A general note: ATP-based viability assays read luminescence as a measure of living cells.

Bounds are passed on as bounds.

T1 sequence (O94782 whole entry): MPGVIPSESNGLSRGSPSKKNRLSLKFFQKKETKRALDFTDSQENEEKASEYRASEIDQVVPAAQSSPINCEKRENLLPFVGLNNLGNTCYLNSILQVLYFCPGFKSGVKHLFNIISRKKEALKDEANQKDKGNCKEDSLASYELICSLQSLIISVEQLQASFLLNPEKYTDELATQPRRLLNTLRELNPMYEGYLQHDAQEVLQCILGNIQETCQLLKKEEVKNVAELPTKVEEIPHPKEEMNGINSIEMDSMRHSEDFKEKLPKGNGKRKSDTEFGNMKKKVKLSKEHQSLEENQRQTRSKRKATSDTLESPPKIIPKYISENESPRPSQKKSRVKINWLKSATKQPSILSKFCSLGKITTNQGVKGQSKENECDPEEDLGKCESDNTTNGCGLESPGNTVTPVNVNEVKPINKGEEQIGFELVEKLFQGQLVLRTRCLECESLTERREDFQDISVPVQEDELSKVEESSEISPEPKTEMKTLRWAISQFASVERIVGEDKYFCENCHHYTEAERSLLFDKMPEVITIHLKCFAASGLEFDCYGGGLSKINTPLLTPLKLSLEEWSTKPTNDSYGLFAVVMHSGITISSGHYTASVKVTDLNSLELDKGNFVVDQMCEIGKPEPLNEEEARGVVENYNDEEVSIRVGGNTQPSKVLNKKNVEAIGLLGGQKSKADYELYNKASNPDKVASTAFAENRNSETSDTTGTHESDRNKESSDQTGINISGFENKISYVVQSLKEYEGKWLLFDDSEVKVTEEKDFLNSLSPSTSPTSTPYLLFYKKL
T1 sequence (Q8TAF3 whole entry partner): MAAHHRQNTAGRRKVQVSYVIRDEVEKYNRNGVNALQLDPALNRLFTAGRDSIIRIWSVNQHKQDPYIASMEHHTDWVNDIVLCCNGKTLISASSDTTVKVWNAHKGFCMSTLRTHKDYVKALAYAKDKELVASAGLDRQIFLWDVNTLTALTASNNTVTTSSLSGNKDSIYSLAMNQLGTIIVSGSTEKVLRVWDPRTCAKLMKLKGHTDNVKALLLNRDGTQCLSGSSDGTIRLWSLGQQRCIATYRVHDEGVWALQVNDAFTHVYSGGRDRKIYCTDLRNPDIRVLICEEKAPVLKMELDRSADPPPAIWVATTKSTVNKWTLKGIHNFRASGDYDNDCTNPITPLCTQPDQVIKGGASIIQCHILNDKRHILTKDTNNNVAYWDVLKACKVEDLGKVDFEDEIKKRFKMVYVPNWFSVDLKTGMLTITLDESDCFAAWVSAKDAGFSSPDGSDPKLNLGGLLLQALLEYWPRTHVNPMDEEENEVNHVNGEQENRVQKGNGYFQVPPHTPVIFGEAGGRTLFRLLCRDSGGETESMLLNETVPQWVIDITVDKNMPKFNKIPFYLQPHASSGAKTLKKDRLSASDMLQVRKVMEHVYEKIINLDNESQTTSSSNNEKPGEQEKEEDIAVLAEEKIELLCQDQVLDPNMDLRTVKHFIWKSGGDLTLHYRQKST

In general, IC50 refers to the concentration at which inhibition is half-maximal. Turning to `CC(C)c1ncccc1-c1ncnc2c1CN(c1ccc(-c3nc(C(F)(F)F)cn3C)cc1)CC2` [Compound 1, 4-(2-isopropylpyridin-3-yl)-6-(4-(1-methyl-4-(trifluoromethyl)-1H-imidazol-2-yl)phenyl)-5,6,7,8-tetrahydropyrido[4,3-d]pyrimidine], the IC50 (in experiment [1]; in the experiment on MDA-MB-436 cells) was 1 to 10 µM each time.
`COc1ncnc(C2CC2)c1-c1nccc2c1CN(c1ccc(-c3nc(C(F)(F)F)cn3C)cn1)CC2` [Compound 2, 8-(4-cyclopropyl-6-methoxypyrimidin-5-yl)-2-(5-(1-methyl-4-(trifluoromethyl)-1H-imidazol-2-yl)pyridin-2-yl)-1,2,3,4-tetrahydro-2,7-naphthyridine]: the IC50 (in experiment [1]; in the experiment on MDA-MB-436 cells) was 0.05 to 1 µM throughout.
As for `COc1ncnc(C2CC2)c1-c1nnn2c1CN(c1ccc(-c3nc(C(F)(F)F)cn3C)cc1)CC2` [Compound 3, 3-(4-cyclopropyl-6-methoxypyrimidin-5-yl)-5-(4-(1-methyl-4-(trifluoromethyl)-1H-imidazol-2-yl)phenyl)-4,5,6,7-tetrahydro-[1,2,3]triazolo[1,5-a]pyrazine], the IC50 (in experiment [1]; in the experiment on MDA-MB-436 cells) was 0.05 to 1 µM in each case.
On to `COc1ncnc(C2CC2)c1-c1nn(C)c2c1CN(c1ncc(-c3nc(C(F)(F)F)cn3C)s1)C2` [Compound 4, 2-(3-(4-cyclopropyl-6-methoxypyrimidin-5-yl)-1-methyl-4,6-dihydropyrrolo[3,4-c]pyrazol-5(1H)-yl)-5-(1-methyl-4-(trifluoromethyl)-1H-imidazol-2-yl)thiazole], for which the IC50 (in experiment [1]; with MDA-MB-436 cells) was 0.05 to 1 µM each time.
In the case of `COc1ncnc(C2CC2)c1-c1nn(C)c2c1CN(c1ccc(-c3nc(C(F)(F)F)cn3C)cn1)C2` [Compound 5, 3-(4-cyclopropyl-6-methoxypyrimidin-5-yl)-1-methyl-5-(5-(1-methyl-4-(trifluoromethyl)-1H-imidazol-2-yl)pyridin-2-yl)-1,4,5,6-tetrahydropyrrolo[3,4-c]pyrazole], the IC50 in experiment [1] was 1 to 10 µM.
On the same count and under the same terms, the result for `COc1ncnc(C2CC2)c1-c1nn(C)c2c1CN(c1ccc(-c3nc(C(F)(F)F)cn3C)nc1)C2` [Compound 6, 3-(4-cyclopropyl-6-methoxypyrimidin-5-yl)-1-methyl-5-(6-(1-methyl-4-(trifluoromethyl)-1H-imidazol-2-yl)pyridin-3-yl)-1,4,5,6-tetrahydropyrrolo[3,4-c]pyrazole] reads 1 to 10 µM; that for `COc1ncnc(C2CC2)c1-c1nn(C)c2c1CN(c1ccc(-c3nc(C(F)(F)F)cn3C)cc1)C2` [Compound 7, 3-(4-cyclopropyl-6-methoxypyrimidin-5-yl)-1-methyl-5-(4-(1-methyl-4-(trifluoromethyl)-1H-imidazol-2-yl)phenyl)-1,4,5,6-tetrahydropyrrolo[3,4-c]pyrazole], 0.05 to 1 µM.
With `COc1ncnc(C2CC2)c1-c1nn(C)c2c1CN(c1ncc(-c3nc(C(F)(F)F)cn3C(C)C)s1)C2` [Compound 8, 2-(3-(4-cyclopropyl-6-methoxypyrimidin-5-yl)-1-methyl-4,6-dihydropyrrolo[3,4-c]pyrazol-5(1H)-yl)-5-(1-isopropyl-4-(trifluoromethyl)-1H-imidazol-2-yl)thiazole], the IC50 (in experiment [1]; in the experiment on MDA-MB-436 cells) was 0.05 to 1 µM each time.
In the case of `CC(C)c1ncccc1-c1nn(C)c2c1CN(c1ncc(-c3nc(C(F)(F)F)cn3C)s1)C2` [Compound 9, 2-(3-(2-isopropylpyridin-3-yl)-1-methyl-4,6-dihydropyrrolo[3,4-c]pyrazol-5(1H)-yl)-5-(1-methyl-4-(trifluoromethyl)-1H-imidazol-2-yl)thiazole], the IC50 in experiment [1] lay in the range of 0.05 to 1 µM.
In the case of `COc1ncnc(C2CC2)c1-c1nn(C)c2c1CN(c1cnc(-c3nc(C(F)(F)F)cn3C)s1)C2` [Compound 10, 5-(3-(4-cyclopropyl-6-methoxypyrimidin-5-yl)-1-methyl-4,6-dihydropyrrolo[3,4-c]pyrazol-5(1H)-yl)-2-(1-methyl-4-(trifluoromethyl)-1H-imidazol-2-yl)thiazole], the IC50 (in experiment [1]; in the experiment on MDA-MB-436 cells) was 0.05 to 1 µM throughout.
As for `COc1ncnc(C2CC2)c1-n1nc(C)c2c1CN(c1ccc(-c3nc(C(F)(F)F)cn3C)cn1)CC2` [Compound 11, 1-(4-cyclopropyl-6-methoxypyrimidin-5-yl)-3-methyl-6-(5-(1-methyl-4-(trifluoromethyl)-1H-imidazol-2-yl)pyridin-2-yl)-4,5,6,7-tetrahydro-1H-pyrazolo[3,4-c]pyridine], the figures for the IC50 (in experiment [1]; in the experiment with MDA-MB-436 cells) were 0.05 to 1 µM and below 0.05 µM, respectively.
Taken in the same sequence, the figures for `CCn1cc(C(F)(F)F)nc1-c1ccc(N2CCc3c(C)nn(-c4c(OC)ncnc4C4CC4)c3C2)nc1` [Compound 12, 1-(4-cyclopropyl-6-methoxypyrimidin-5-yl)-6-(5-(1-ethyl-4-(trifluoromethyl)-1H-imidazol-2-yl)pyridin-2-yl)-3-methyl-4,5,6,7-tetrahydro-1H-pyrazolo[3,4-c]pyridine] were 0.05 to 1 µM and below 0.05 µM.
Turning to `COc1ncnc(C2CC2)c1-n1nc(C)c2c1CN(c1ccc(-c3nc(C(F)(F)F)cn3C(C)C)cn1)CC2` [Compound 13, 1-(4-cyclopropyl-6-methoxypyrimidin-5-yl)-6-(5-(1-isopropyl-4-(trifluoromethyl)-1H-imidazol-2-yl)pyridin-2-yl)-3-methyl-4,5,6,7-tetrahydro-1H-pyrazolo[3,4-c]pyridine], the concentration for half-maximal inhibition (IC50) (in experiment [1]; in the experiment on MDA-MB-436 cells) was 0.05 to 1 µM in each case.
Take `COc1ncnc(C2CC2)c1-n1nc(C)c2c1CN(c1ccc(-c3nc(C(F)(F)F)cn3C)nc1)CC2` [Compound 14, 1-(4-cyclopropyl-6-methoxypyrimidin-5-yl)-3-methyl-6-(6-(1-methyl-4-(trifluoromethyl)-1H-imidazol-2-yl)pyridin-3-yl)-4,5,6,7-tetrahydro-1H-pyrazolo[3,4-c]pyridine]: the half-inhibitory concentration (IC50) (in experiment [1]; in the experiment with MDA-MB-436 cells) was 0.05 to 1 µM throughout.
As to `COc1ncnc(C2CC2)c1-n1nc(C)c2c1CN(c1cnc(-c3nc(C(F)(F)F)cn3C)cn1)CC2` [Compound 15, 1-(4-cyclopropyl-6-methoxypyrimidin-5-yl)-3-methyl-6-(5-(1-methyl-4-(trifluoromethyl)-1H-imidazol-2-yl)pyrazin-2-yl)-4,5,6,7-tetrahydro-1H-pyrazolo[3,4-c]pyridine], the IC50 (in experiment [1]; in the experiment on MDA-MB-436 cells) was below 0.05 µM each time.
As for `COc1ncnc(C2CC2)c1-n1nc(C)c2c1CN(c1ncc(-c3nc(C(F)(F)F)cn3C)cn1)CC2` [Compound 16, 1-(4-cyclopropyl-6-methoxypyrimidin-5-yl)-3-methyl-6-(5-(1-methyl-4-(trifluoromethyl)-1H-imidazol-2-yl)pyrimidin-2-yl)-4,5,6,7-tetrahydro-1H-pyrazolo[3,4-c]pyridine], the IC50 (in experiment [1]; in the experiment on MDA-MB-436 cells) was 0.05 to 1 µM each time.
With `COc1ncnc(C2CC2)c1-n1nc(C)c2c1CN(c1ccc(-c3nc(C(F)(F)F)cn3C)c(F)c1)CC2` [Compound 17, 1-(4-cyclopropyl-6-methoxypyrimidin-5-yl)-6-(3-fluoro-4-(1-methyl-4-(trifluoromethyl)-1H-imidazol-2-yl)phenyl)-3-methyl-4,5,6,7-tetrahydro-1H-pyrazolo[3,4-c]pyridine], the IC50 (in experiment [1]; in the experiment with MDA-MB-436 cells) was below 0.05 µM throughout.
With `COc1ncnc(C2CC2)c1-n1nc(C)c2c1CN(c1ccc(-c3nc(C(F)(F)F)cn3C)cc1F)CC2` [Compound 18, 1-(4-cyclopropyl-6-methoxypyrimidin-5-yl)-6-(2-fluoro-4-(1-methyl-4-(trifluoromethyl)-1H-imidazol-2-yl)phenyl)-3-methyl-4,5,6,7-tetrahydro-1H-pyrazolo[3,4-c]pyridine], the results for the IC50 (in experiment [1]; with MDA-MB-436 cells) were 0.05 to 1 µM and below 0.05 µM, respectively.
Regarding `Cc1nn(-c2ccccc2C(C)C)c2c1CCN(c1ccc(-c3nc(C(F)(F)F)cn3C)cn1)C2` [Compound 19, 1-(2-isopropylphenyl)-3-methyl-6-(5-(1-methyl-4-(trifluoromethyl)-1H-imidazol-2-yl)pyridin-2-yl)-4,5,6,7-tetrahydro-1H-pyrazolo[3,4-c]pyridine], the half-maximal inhibitory concentration (IC50) (in experiment [1]; in the experiment on MDA-MB-436 cells) was below 0.05 µM each time.
With `COc1ncnc(C2CC2)c1-n1nc(C)c2c1CN(c1ccc(-n3nc(C(F)(F)F)cc3C)cn1)CC2` [Compound 20, 1-(4-cyclopropyl-6-methoxypyrimidin-5-yl)-3-methyl-6-(5-(5-methyl-3-(trifluoromethyl)-1H-pyrazol-1-yl)pyridin-2-yl)-4,5,6,7-tetrahydro-1H-pyrazolo[3,4-c]pyridine], the concentration for half-maximal inhibition (IC50) (in experiment [1]; in the experiment on MDA-MB-436 cells) was 0.05 to 1 µM each time.
With `COc1ncnc(C2CC2)c1-n1nc(C)c2c1CN(c1ncc(-c3nc(C(F)(F)F)cn3C)s1)CC2` [Compound 21, 2-(1-(4-cyclopropyl-6-methoxypyrimidin-5-yl)-3-methyl-1,4,5,7-tetrahydro-6H-pyrazolo[3,4-c]pyridin-6-yl)-5-(1-methyl-4-(trifluoromethyl)-1H-imidazol-2-yl)thiazole], the concentration for half-maximal inhibition (IC50) (in experiment [1]; in the experiment with MDA-MB-436 cells) was 0.05 to 1 µM in each case.
